Assay results published in patent US9943528B2 (MAPREG, priority 2016, dated 2018).

Assays:
Noradrenergic α2 = test: CNS receptor binding assay, α2; settings: MAP4343 10 μM; [3H] RX 821002; rat cerebral cortex
Excerpt: (§1) MAP4343 has been screened for in vitro affinity to 80 different CNS neurotransmitters receptors using various validated binding assays.

NMDA PCP site = test: CNS receptor binding assay, NMDA PCP site; settings: MAP4343 10 μM; [3H] TCP; rat cerebral cortex
Excerpt: as §1

Wistar Kyoto (WKY) rats [1] = test: Open-field arena (OFA) in WKY rats, acute treatment; format: in vivo, rat; settings: MAP4343 10 mg/kg s.c., fluoxetine 10 mg/kg i.p., ketamine 30 mg/kg i.p.
Description: (§2) After a 6-day period of acclimatization, all experimental groups received daily successive subcutaneous (250 μl per rat) and intraperitoneal (1 ml/kg) injections. WI rats received injection of vehicle (sesame oil+saline) while WKY rats were randomly assigned to […] experimental groups, as follow: KWY rats receiving only vehicle (sesame oil+saline) and WKY rats treated with MAP4343 (10 mg/kg, s.c.; rats received in parallel i.p. injections of saline), fluoxetine (10 mg/kg i.p., rats received in parallel s.c. injections of sesame oil) or ketamine (30 mg/kg, i.p.; rats received in parallel s.c. injections of sesame oil) (see FIG. 3).
(§3) After, a 6-day period of acclimatization, the acute phase of treatment started for 4 days during behavioral tests were performed (FIG. 3). All animals were injected 1 h 30 before the starting of behavioral test.
The animals were individually placed in the open field arena (OFA) (70×100×70 cm), with a central square (35×50 cm), located in a 50 lux illuminated room and videotaped during 3 min using a computerized system (VideoTrack V2.5, ViewPoint, Lyon, France).
OFA allows firstly the evaluation of total locomotor activity (LMA) thereby measuring the total distance travelled in the arena (in cm). Secondly, measurements of the activity in the center of the arena like (i) the number of entries in the center of arena and (ii) the total time spent in the center of arena (in sec) provide cues of anxiety-like behavior (Prut and Belzung, 2003). All these behavioral parameters were instantaneously measured automatically with the VideoTrack V2.5 software from the videos.

Wistar Kyoto (WKY) rats [2] = test: Elevated-plus maze (EPM) in WKY rats, acute treatment; format: in vivo, rat; settings: MAP4343 10 mg/kg s.c., fluoxetine 10 mg/kg, ketamine 30 mg/kg i.p., FIG. 5D
Description: as §2, §3
We used the elevated-plus maze (EPM) as an assay of anxiety-related behavior in rodents (Walf and Frye, 2007). […] The time spent in the open versus closed arms was blindly measured by two independent experimenters from the recorded video, and the open arm-index was calculated as follow: time in the open arms (sec)/[time in open arms (sec)+time in closed arms (sec)].

[3] = test system: purified tubulin and MAP2; test: Activity: increase in optical density at 345 nm of purified tubulin and MAP2 with GTP; format: biochemical; settings: 37° C.
Description: Activity is measured by the increase in optical density at 345 nm of a mixture of purified tubulin and MAP2, incubated at 37° C. in the presence of GTP.

[4] = test system: tree shrews exposed to chronic psychosocial stress; settings: 4-week daily administration; cited from earlier work

For CO[C@H]1CC[C@@]2(C)C(=CC[C@H]3[C@@H]4CC[C@H](C(C)=O)[C@@]4(C)CC[C@@H]32)C1 [MAP4343, 3β-methoxy-pregna-5-ene-20-one], the “% Inhibition of control specific binding” value (Noradrenergic α2) was 7%, the “% Inhibition of control specific binding” value (NMDA PCP site) was −10% and the “locomotor activity (total distance travelled in the open-field arena), change vs WKY receiving vehicle” value (Wistar Kyoto (WKY) rats [1]; 3 min, FIG. 5A) was “did not modify significantly the locomotor activity”. The “number of entries in the central square of OFA, change vs WKY receiving only vehicle” value (Wistar Kyoto (WKY) rats [1]; FIG. 5B) was “+289%”, the “time spent in the center of open-field vs WKY receiving vehicle” value (Wistar Kyoto (WKY) rats [1]; FIG. 5C) was “did not modify the low time spent in central square of arena” and the “open-arm (OA) index in EPM, change vs WKY receiving vehicle alone” value (Wistar Kyoto (WKY) rats [2]) was 165%. For the same molecule, the Activity [3] was 100% of PREG, the “hormone hypersecretion, hypothermia and sleep disturbances” value [4] was “prevent hormone hypersecretion, hypothermia and sleep disturbances” and the stress-triggered avoidance behavior [4] was “abolish stress-triggered avoidance behavior”.
